Earlier results in patent publication US20220233546A1, “Neurologist Formulated Nocturnal Nootropic Founded on a Novel Theory of Brain Aging” (priority 2022, published 2022).
Where two headings read alike, the source gives them in different places.

Tests used:
[1] = daily dose of 200 to 2400 mg/day
[2] = in vivo
[3] = test system: young persons with multiple sclerosis
[4] = test system: persons with Alzheimer's disease, Parkinson's disease, and multiple sclerosis; settings: combination therapy including Apigenin 100 mg
plasma homocysteine = settings: supplementation, human
[5] = human; saffron extract 56 mg and 84 mg
[6] = 675 mg, at 4 weeks
[7] = test system: children with autism spectrum disorder; settings: combination therapy including Luteolin 100 mg
[8] = test system: amyotrophic lateral sclerosis (ALS)
multiple sclerosis = settings: high doses; adjunctive therapy in multiple sclerosis
[9] = test system: persons with mild cognitive impairment
[10] = test system: persons with mild cognitive impairment; remark: listed apart in the source
[11] = test system: neurohypophyseal hormone release

O=C(O)CCCCC1CCSS1 (racemic) [ALA, Alpha Lipoic Acid]
safety and tolerability [1]: safe and well-tolerated

C/C1=C2/[N-][C@H]([C@H](CC(N)=O)[C@@]2(C)CCC(=O)NC[C@H](C)OP(=O)([O-])O[C@H]2[C@@H](O)[C@@H](n3cnc4cc(C)c(C)cc43)O[C@@H]2CO)[C@]2(C)N=C(/C(C)=C3N=C(/C=C4N=C1[C@@H](CCC(N)=O)C\4(C)C)[C@@H](CCC(N)=O)[C@]\3(C)CC(N)=O)[C@@H](CCC(N)=O)[C@]2(C)CC(N)=O.[Co+2] (stereo in doubt) [cobalamin]
bioavailability [2]: 50%

O=C(O)CCCC[C@@H]1CCSS1 [(R)-Alpha Lipoic Acid]
safety and tolerability profile ([3]; human, in vivo): good safety and tolerability profile | reduction of yearly rate of brain atrophy ([3]; young persons with multiple sclerosis): ~70%

O=c1cc(-c2ccc(O)cc2)oc2cc(O)cc(O)c12 [Apigenin]
clinical course and biomarkers including abnormal protein deposition [4]: trend towards clinical stabilization and reduction of specific biomarkers

C[N+](C)(C)CC(=O)O [Betaine]
plasma homocysteine concentrations (plasma homocysteine): significant reduction

CC(/C=C/C=C(\C)C(=O)O)=C\C=C\C=C(C)\C=C\C=C(/C)C(=O)O [Crocetin]
bioavailability [5]: 40% | serum concentration of saffron isomers [5]: detected at a significant concentration

COc1cc(/C=C/C(=O)CC(=O)/C=C/c2ccc(O)c(OC)c2)ccc1O [Curcumin]
working memory and attention (Buschke Selective Reminding Test, Brief Visual Memory Test-Revised, Trail Making A) (adults without dementia; adults without dementia): improves working memory and attention | post-interventional changes in pathological proteins (amyloid and tau) by positron emission tomography (adults without dementia; brain regions including the amygdala): significant decrease in pathological proteins

O=C(O)[C@H](O)[C@@H](O)CO [L-Threonate]
Threonate concentration in cerebrospinal fluid (CSF) (CSF): ~100 µM | Threonate concentration in plasma (plasma): approximately 20 μM | increase in CSF Threonate concentration [6]: 54% | increase in magnesium concentration ([6]; CSF): 15%

O=c1cc(-c2ccc(O)c(O)c2)oc2cc(O)cc(O)c12 [Luteolin]
adaptive functioning and Aberrant Behavior Checklist subscale scores [7]: improvement in adaptive functioning and reduction in Aberrant Behavior Checklist subscale scores | adverse effects [7]: no adverse effects

COc1cc(/C=C/c2ccc(O)cc2)cc(OC)c1 [Trans-Pterostilbene]
function and progression of neurodegenerative processes [8]: significantly improves function in and slows progression of neurodegenerative processes

C=C1CC[C@H](O)C/C1=C/C=C1\CCC[C@]2(C)[C@@H]([C@H](C)CCCC(C)C)CC[C@@H]12 [cholecalciferol, Cholecalciferol]
brain lesions, disability and mobility (multiple sclerosis): fewer new brain lesions, reduced disability, and improved mobility

Nc1nc2ncc(CNc3ccc(C(=O)N[C@@H](CCC(=O)O)C(=O)O)cc3)nc2c(=O)[nH]1 [folic acid]
dementia-related biomarkers (beta-amyloid, homocysteine, S-adenosylmethionine, amyloid precursor protein mRNA expression) [9]: deceases dementia-related biomarkers | cognitive function (full scale IQ, verbal IQ, verbal comprehension index, working memory index) ([9]; pre- and post-intervention): improves cognitive function

COc1ccc2[nH]cc(CCNC(C)=O)c2c1 [melatonin, Melatonin]
cognition after a battery of neurocognitive testing [10]: significant improvement in cognition | neurohypophyseal hormone release ([11]; higher dose melatonin 5 mg): inhibited | neurohypophyseal hormone release ([11]; low dose melatonin 0.5 mg): augmented

CC1=C(C=O)C(C)(C)CC=C1 [safranal, reference compound]
serum concentration of saffron isomers [5]: undetectable
